Laboratory results: ChEMBL document CHEMBL4304811, “Development of a Water-Soluble Indolylmaleimide Derivative IM-93 Showing Dual Inhibition of Ferroptosis and NETosis” (ACS Med Chem Lett, 2019)
The source made the active and inactive calls. No cut-off for these calls is given here.

Tests used:
[1] = tested on: Tyrosine-protein kinase ABL1 (Homo sapiens), P00519 [T315I]; assay: Binding affinity to human non-phosphorylated ABL1 T315I mutant (S229 to K512 residues) expressed in mammalian expression system assessed as residual binding level at 10 uM by Kinomescan method relative to control
[2] = molecular target: ALK tyrosine kinase receptor (Homo sapiens) (UniProt Q9UM73); assay: Binding affinity to wild-type human partial length ALK (I1088 to E1409 residues) expressed in mammalian expression system assessed as residual binding level at 10 uM by Kinomescan method relative to control
[3] = molecular target: Macrophage colony-stimulating factor 1 receptor (Homo sapiens) (UniProt P07333); assay: Binding affinity to wild-type human partial length CSF1R (I564 to S939 residues) expressed in bacterial expression system assessed as residual binding level at 10 uM by Kinomescan method relative to control
Macrophage colony-stimulating factor 1 receptor (Homo sapiens), sequence (P07333 whole entry, the tested form may be a part): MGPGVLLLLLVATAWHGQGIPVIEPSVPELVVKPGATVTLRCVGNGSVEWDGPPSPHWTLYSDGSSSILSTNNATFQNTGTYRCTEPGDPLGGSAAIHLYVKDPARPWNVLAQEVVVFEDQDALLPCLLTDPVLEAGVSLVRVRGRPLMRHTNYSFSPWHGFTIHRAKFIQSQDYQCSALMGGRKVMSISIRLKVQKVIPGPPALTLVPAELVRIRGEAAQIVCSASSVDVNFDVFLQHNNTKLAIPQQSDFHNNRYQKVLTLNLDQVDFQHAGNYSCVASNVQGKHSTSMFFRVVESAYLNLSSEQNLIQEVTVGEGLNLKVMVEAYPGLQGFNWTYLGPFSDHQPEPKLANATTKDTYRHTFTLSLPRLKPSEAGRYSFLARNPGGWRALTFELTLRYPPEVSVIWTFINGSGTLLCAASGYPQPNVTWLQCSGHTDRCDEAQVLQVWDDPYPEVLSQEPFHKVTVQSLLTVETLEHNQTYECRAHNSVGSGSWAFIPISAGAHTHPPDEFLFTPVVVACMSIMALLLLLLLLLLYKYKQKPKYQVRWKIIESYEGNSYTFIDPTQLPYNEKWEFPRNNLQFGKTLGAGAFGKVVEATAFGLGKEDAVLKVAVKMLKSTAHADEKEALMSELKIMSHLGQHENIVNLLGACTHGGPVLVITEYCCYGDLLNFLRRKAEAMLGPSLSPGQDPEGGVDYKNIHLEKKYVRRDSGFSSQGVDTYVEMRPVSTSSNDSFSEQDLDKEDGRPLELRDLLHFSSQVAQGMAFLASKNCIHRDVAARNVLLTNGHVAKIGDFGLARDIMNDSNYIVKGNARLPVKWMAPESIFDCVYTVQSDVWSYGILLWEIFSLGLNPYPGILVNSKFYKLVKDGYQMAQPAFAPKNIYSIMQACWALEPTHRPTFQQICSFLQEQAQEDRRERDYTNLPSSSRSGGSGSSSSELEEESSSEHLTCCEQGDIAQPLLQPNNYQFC

[4] = molecular target: Macrophage colony-stimulating factor 1 receptor (Homo sapiens) (UniProt P07333); assay: Binding affinity to wild-type human partial length autoinhibited CSF1R (Y538 to S939 residues) expressed in mammalian expression system assessed as residual binding level at 10 uM by Kinomescan method relative to control
[5] = molecular target: Serine/threonine-protein kinase 17B (Homo sapiens) (UniProt O94768); assay: Binding affinity to wild-type human full length DRAK2 (M1 to C372 residues) expressed in bacterial expression system assessed as residual binding level at 10 uM by Kinomescan method relative to control
[6] = tested on: Epidermal growth factor receptor (Homo sapiens), P00533 [T790M]; assay: Binding affinity to human partial length EGFR T790M mutant (R669 to G1022 residues) expressed in mammalian expression system assessed as residual binding level at 10 uM by Kinomescan method relative to control
[7] = molecular target: Mitogen-activated protein kinase 6 (Homo sapiens) (UniProt Q16659); assay: Binding affinity to wild-type human partial length ERK3 (M1 to P413 residues) expressed in bacterial expression system assessed as residual binding level at 10 uM by Kinomescan method relative to control
Mitogen-activated protein kinase 6 (Homo sapiens), sequence (Q16659 whole entry, the tested form may be a part): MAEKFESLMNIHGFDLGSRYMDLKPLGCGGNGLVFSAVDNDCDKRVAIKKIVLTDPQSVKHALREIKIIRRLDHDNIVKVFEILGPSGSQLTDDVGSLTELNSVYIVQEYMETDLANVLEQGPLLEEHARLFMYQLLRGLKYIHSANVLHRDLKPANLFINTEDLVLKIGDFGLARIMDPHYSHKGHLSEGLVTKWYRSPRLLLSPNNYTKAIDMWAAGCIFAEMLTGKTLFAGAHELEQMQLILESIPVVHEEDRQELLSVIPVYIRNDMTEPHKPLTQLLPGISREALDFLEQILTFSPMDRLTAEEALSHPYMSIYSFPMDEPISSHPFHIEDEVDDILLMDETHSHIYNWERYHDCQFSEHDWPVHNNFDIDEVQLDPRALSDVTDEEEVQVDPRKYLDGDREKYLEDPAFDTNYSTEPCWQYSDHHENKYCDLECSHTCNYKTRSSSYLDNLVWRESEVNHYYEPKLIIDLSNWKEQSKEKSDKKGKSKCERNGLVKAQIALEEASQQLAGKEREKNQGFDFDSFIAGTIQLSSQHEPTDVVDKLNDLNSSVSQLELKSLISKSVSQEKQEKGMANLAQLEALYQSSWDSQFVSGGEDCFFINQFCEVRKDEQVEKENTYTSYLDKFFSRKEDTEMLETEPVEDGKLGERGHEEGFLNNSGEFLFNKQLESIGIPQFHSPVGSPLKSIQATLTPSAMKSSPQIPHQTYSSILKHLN

[8] = molecular target: Tyrosine-protein kinase Fer (Homo sapiens) (UniProt P16591); assay: Binding affinity to wild-type human partial length FER (S542 to T822 residues) expressed in bacterial expression system assessed as residual binding level at 10 uM by Kinomescan method relative to control
Tyrosine-protein kinase Fer (Homo sapiens), sequence (P16591 whole entry, looked up, the tested form may be a part): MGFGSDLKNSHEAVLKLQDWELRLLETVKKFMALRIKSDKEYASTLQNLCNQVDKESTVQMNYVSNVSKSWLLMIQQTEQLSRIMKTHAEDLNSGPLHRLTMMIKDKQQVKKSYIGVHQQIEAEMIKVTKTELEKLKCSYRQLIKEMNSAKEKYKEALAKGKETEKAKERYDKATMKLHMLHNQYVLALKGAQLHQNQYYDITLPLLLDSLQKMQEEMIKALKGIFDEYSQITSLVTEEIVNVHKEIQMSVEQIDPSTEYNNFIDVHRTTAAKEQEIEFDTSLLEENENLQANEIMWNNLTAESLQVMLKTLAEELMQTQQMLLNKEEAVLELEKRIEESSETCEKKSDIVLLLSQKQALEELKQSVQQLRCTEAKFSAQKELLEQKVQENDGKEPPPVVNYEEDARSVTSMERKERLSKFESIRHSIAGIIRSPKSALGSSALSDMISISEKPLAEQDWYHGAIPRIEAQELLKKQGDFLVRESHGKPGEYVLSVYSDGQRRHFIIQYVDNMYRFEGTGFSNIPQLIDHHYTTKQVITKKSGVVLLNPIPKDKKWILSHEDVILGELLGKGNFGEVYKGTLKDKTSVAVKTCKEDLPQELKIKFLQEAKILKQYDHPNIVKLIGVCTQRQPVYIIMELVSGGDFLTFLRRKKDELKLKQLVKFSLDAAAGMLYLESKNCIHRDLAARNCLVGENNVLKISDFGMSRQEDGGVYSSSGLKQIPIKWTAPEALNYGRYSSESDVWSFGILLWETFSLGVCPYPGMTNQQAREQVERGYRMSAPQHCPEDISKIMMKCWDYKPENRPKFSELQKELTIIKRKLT

[9] = molecular target: Serine/threonine-protein kinase STK11 (Homo sapiens) (UniProt Q15831); assay: Binding affinity to wild-type human full length LKB1 (M1 to Q433 residues) expressed in bacterial expression system assessed as residual binding level at 10 uM by Kinomescan method relative to control
[10] = molecular target: Tyrosine-protein kinase Lyn (Homo sapiens) (UniProt P07948); assay: Binding affinity to wild-type human partial length LYN (C219 to Q511 residues) expressed in bacterial expression system assessed as residual binding level at 10 uM by Kinomescan method relative to control
[11] = molecular target: Serine/threonine-protein kinase MARK1 (Homo sapiens) (UniProt Q9P0L2); assay: Binding affinity to wild-type human partial length MARK1 (Q30 to T341 residues) expressed in bacterial expression system assessed as residual binding level at 10 uM by Kinomescan method relative to control
[12] = molecular target: Myosin light chain kinase, smooth muscle (Homo sapiens) (UniProt Q15746); assay: Binding affinity to wild-type human full length MYLK (M854 to E1845 residues) expressed in mammalian expression system assessed as residual binding level at 10 uM by Kinomescan method relative to control
[13] = molecular target: Serine/threonine-protein kinase Nek5 (Homo sapiens) (UniProt Q6P3R8); assay: Binding affinity to wild-type human partial length NEK5 (M1 to M279 residues) expressed in bacterial expression system assessed as residual binding level at 10 uM by Kinomescan method relative to control
Serine/threonine-protein kinase Nek5 (Homo sapiens), sequence (Q6P3R8 whole entry, the tested form may be a part): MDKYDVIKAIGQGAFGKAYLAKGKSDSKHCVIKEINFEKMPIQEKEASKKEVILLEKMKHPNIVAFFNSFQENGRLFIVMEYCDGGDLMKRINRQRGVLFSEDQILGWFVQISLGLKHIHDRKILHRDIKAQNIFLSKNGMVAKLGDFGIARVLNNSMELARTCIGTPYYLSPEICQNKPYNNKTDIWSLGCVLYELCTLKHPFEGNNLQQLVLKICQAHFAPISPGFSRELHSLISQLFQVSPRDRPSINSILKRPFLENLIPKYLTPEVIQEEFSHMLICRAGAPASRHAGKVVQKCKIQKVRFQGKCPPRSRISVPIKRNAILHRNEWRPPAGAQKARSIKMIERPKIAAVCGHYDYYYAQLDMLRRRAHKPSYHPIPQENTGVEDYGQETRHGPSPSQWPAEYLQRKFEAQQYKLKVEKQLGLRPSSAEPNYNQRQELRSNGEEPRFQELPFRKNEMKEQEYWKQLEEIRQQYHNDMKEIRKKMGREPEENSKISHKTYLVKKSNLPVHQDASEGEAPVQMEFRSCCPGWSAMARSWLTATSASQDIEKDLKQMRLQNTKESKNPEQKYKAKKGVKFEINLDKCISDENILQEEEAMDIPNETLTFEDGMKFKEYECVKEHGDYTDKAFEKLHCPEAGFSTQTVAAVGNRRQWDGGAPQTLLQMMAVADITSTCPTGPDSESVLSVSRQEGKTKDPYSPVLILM

[14] = molecular target: Serine/threonine-protein kinase Nek9 (Homo sapiens) (UniProt Q8TD19); assay: Binding affinity to wild-type human partial length NEK9 (P32 to R328 residues) expressed in bacterial expression system assessed as residual binding level at 10 uM by Kinomescan method relative to control
Serine/threonine-protein kinase Nek9 (Homo sapiens), sequence (Q8TD19 whole entry, the tested form may be a part): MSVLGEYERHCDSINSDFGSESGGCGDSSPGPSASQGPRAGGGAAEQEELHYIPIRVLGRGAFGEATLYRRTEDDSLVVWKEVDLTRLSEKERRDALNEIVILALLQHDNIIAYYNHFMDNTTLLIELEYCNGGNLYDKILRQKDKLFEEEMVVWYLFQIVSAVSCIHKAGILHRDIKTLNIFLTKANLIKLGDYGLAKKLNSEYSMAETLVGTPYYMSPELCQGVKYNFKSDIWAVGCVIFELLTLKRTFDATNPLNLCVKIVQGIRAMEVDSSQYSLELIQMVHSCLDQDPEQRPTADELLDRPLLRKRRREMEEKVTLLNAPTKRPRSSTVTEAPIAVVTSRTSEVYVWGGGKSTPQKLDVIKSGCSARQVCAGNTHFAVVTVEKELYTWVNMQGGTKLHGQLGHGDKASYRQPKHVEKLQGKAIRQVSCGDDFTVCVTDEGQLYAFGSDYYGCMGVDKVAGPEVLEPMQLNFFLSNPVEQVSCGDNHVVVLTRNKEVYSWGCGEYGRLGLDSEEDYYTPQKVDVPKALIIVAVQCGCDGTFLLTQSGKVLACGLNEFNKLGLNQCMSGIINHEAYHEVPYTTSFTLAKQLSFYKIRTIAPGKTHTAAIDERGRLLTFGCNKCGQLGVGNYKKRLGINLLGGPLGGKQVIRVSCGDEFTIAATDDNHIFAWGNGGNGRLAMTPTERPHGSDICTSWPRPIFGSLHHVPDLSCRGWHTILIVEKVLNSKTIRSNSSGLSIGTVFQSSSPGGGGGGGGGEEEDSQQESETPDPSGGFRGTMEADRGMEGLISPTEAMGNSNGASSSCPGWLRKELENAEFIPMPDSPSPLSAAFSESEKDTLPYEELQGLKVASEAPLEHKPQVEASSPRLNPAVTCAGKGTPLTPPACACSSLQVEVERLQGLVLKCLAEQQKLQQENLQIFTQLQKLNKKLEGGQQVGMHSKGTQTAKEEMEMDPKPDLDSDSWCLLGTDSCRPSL

[15] = molecular target: Mitogen-activated protein kinase kinase kinase 14 (Homo sapiens) (UniProt Q99558); assay: Binding affinity to wild-type human partial length NIK (L318 to P947 residues) expressed in mammalian expression system assessed as residual binding level at 10 uM by Kinomescan method relative to control
[16] = molecular target: 3-phosphoinositide-dependent protein kinase 1 (Homo sapiens) (UniProt O15530); assay: Binding affinity to wild-type human full length PDPK1 (M1 to Q556 residues) expressed in bacterial expression system assessed as residual binding level at 10 uM by Kinomescan method relative to control
[17] = molecular target: Serine/threonine-protein kinase N2 (Homo sapiens) (UniProt Q16513); assay: Binding affinity to wild-type human partial length PKN2 (E634 to C984 residues) expressed in bacterial expression system assessed as residual binding level at 10 uM by Kinomescan method relative to control
[18] = molecular target: Protein kinase C epsilon type (Homo sapiens) (UniProt Q02156); assay: Binding affinity to wild-type human partial length PRKCE (A378 to P737 residues) expressed in mammalian expression system assessed as residual binding level at 10 uM by Kinomescan method relative to control
[19] = molecular target: Interferon-induced, double-stranded RNA-activated protein kinase (Homo sapiens) (UniProt P19525); assay: Binding affinity to wild-type human partial length PRKR (F247 to C551 residues) expressed in bacterial expression system assessed as residual binding level at 10 uM by Kinomescan method relative to control
Interferon-induced, double-stranded RNA-activated protein kinase (Homo sapiens), sequence (P19525 whole entry, the tested form may be a part): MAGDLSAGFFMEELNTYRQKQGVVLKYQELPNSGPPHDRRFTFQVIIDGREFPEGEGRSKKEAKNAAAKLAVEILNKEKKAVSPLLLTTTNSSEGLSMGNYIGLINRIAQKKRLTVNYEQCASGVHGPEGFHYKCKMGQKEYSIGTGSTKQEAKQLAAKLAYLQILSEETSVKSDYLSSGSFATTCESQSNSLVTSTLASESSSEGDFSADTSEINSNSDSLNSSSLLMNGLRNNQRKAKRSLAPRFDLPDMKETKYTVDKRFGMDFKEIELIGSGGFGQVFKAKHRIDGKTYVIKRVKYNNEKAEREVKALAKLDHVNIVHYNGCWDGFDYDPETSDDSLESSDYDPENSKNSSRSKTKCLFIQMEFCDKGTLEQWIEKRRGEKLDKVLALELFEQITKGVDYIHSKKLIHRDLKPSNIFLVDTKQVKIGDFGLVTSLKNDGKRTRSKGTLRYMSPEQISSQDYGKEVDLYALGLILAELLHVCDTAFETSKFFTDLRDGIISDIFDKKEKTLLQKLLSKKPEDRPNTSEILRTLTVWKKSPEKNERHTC

[20] = molecular target: Serine/threonine-protein kinase SIK3 (Homo sapiens) (UniProt Q9Y2K2); assay: Binding affinity to wild-type human partial length QSK (A90 to L395 residues) expressed in mammalian expression system assessed as residual binding level at 10 uM by Kinomescan method relative to control
[21] = molecular target: Ribosomal protein S6 kinase beta-1 (Homo sapiens) (UniProt P23443); assay: Binding affinity to wild-type human partial length S6K1 (M1 to S421 residues) expressed in mammalian expression system assessed as residual binding level at 10 uM by Kinomescan method relative to control
[22] = molecular target: Serine/threonine-protein kinase 35 (Homo sapiens) (UniProt Q8TDR2); assay: Binding affinity to wild-type human partial length STK35 (G182 to A534 residues) expressed in bacterial expression system assessed as residual binding level at 10 uM by Kinomescan method relative to control
[23] = molecular target: Serine/threonine-protein kinase ULK2 (Homo sapiens) (UniProt Q8IYT8); assay: Binding affinity to wild-type human partial length ULK2 (M1 to S301 residues) expressed in mammalian expression system assessed as residual binding level at 10 uM by Kinomescan method relative to control
[24] = molecular target: Tyrosine-protein kinase Yes (Homo sapiens) (UniProt P07947); assay: Binding affinity to wild-type human partial length YES (T257 to L543 residues) expressed in bacterial expression system assessed as residual binding level at 10 uM by Kinomescan method relative to control
[25] = tested on: Neutrophil; assay: Inhibition of PMA-induced NETosis in human neutrophils assessed as reduction in lipid peroxidation at 20 uM preincubated for 30 mins followed by PMA stimulation measured after 30 mins by C11-Bodipy fluorescent dye based flow cytometry

CC(C)N1C(=O)C(NCCCN(C)C)=C(c2cn(C)c3ccccc23)C1=O.Cl
Activity [1]: 93% | Activity [2]: 100% | Activity [3]: 97% | Activity [4]: 87% | Activity [5]: 91% | Activity [6]: 91% | Activity [7]: 100% | Activity [8]: 97% | Activity [9]: 91% | Activity [10]: 98% | Activity [11]: 67% | Activity [12]: 75% | Activity [13]: 100% | Activity [14]: 100% | Activity [15]: 93% | Activity [16]: 89% | Activity [17]: 95% | Activity [18]: 94% | Activity [19]: 100% | Activity [20]: 93% | Activity [21]: 77% | Activity [22]: 100% | Activity [23]: 80% | Activity [24]: 100% | inhibition [25]: Active
